For the assay, the target named is T1, His6-AspH315–758 (human aspartate/asparagine-β-hydroxylase, AspH) (Homo sapiens, UniProt Q12797).
T1 construct: N-Terminally His6-tagged human AspH315–758 (His6-AspH315–758) was produced in E. coli BL21 (DE3) cells; made in house; host or cells: E. coli BL21 (DE3), pET-28a(+) vector
T1 sequence (Q12797 315-758): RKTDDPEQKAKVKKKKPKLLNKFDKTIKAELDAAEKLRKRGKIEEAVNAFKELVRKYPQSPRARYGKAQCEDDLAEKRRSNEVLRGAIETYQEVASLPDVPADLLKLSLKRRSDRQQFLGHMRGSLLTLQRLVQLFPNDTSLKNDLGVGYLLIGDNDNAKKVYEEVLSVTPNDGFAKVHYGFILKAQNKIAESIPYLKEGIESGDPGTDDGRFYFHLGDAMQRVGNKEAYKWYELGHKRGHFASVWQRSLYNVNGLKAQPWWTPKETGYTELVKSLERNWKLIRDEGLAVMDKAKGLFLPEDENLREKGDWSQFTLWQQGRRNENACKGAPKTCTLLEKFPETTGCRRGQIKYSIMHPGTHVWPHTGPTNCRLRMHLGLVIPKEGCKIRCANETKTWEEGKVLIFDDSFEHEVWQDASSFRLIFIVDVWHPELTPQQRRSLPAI
Briefly: SPE-MS AspH inhibition assay (LOPAC screen at fixed 20 μM and IC50 dose-response), hydroxylation of cyclic peptide hFX-CP101–119. The class given is biochemical. The following applies: for Plate 5 (% inhibition) / Plate 5 (% conversion): plate 5 (Pfitzer), test compounds at fixed 20 μM; for Plate 5 (% conversion): mean conversion DMSO 32.88.

The mark [1] stands for this setting: LOPAC compound at fixed 20 uM, plate 1, normalised to DMSO and 2,4-PDCA controls.
The mark [2] stands for this setting: LOPAC compound at fixed 20 uM, substrate conversion, plate 1.
[3] abbreviates: LOPAC Plate 4, compound at 20 uM, substrate conversion.
Where [4] appears, read: LOPAC Plate 4, compound at 20 uM.

Structures can show the parent of a compound that is named as a salt. Where two headings read alike, the source gives them in different places.

By % inhibition is commonly meant the relative decrease from the control value, in per cent. What is called inhibition is the relative decrease from the control value, in per cent.

For `CO[C@H]1O[C@@H]2O[C@@]3(C)CC[C@H]4[C@H](C)CC[C@@H]([C@H]1C)[C@@]24OO3` [Artemether], under setting [1], the “Plate 1 (% inhibition)” value is -9.16%. The “Plate 1 (% conversion)” value under setting [2] was 38.95%. `CC1=C(/C=C/C(C)=C/C=C/C(C)=C/C=C/C=C(C)/C=C/C=C(C)/C=C/C2=C(C)C(=O)[C@@H](O)CC2(C)C)C(C)(C)C[C@H](O)C1=O` [Astaxanthin]: the “Plate 1 (% inhibition)” value under setting [1] is listed as -2.40%. Also, the “Plate 1 (% conversion)” value under setting [2] was 36.68%. Regarding `CC(C)c1c(C(=O)Nc2ccccc2)c(-c2ccccc2)c(-c2ccc(F)cc2)n1CC[C@@H](O)C[C@@H](O)CC(=O)O` [Atorvastatin calcium salt trihydrate], the “Plate 5 (% inhibition)” value was 17.18%. Under setting [1], the “Plate 1 (% inhibition)” value was found to be 1.55%. For `C[N+]1(C)[C@@H]2CC[C@H]1C[C@@H](OC(=O)C(CO)c1ccccc1)C2` (some centres unmarked) [Atropine methyl bromide], the “Plate 1 (% inhibition)” value under setting [1] is on record as -14.40%. In addition, the “Plate 1 (% conversion)” value under setting [2] is reported as 40.71%. Taken in the same sequence, the figures for `C[N+]1(C)[C@@H]2CC[C@H]1C[C@@H](OC(=O)C(CO)c1ccccc1)C2` (some centres unmarked) [Atropine methyl nitrate] were 2.78% and 34.94%. On to `CN1[C@@H]2CC[C@H]1C[C@@H](OC(=O)C(CO)c1ccccc1)C2` (some centres unmarked) [Atropine sulfate], for which the “Plate 1 (% inhibition)” value worked out at 2.77%. On to `CC(=O)OC[C@H]1O[C@@H]([S-])[C@H](OC(C)=O)[C@@H](OC(C)=O)[C@@H]1OC(C)=O.CCP(CC)CC.[Au+]` [Auranofin], for which the “% conversion” value was found to be 18.61%. In addition, under “20 µM”, the “% inhibition” value is 52.32%. For `CC(C)=CCC/C(C)=C/COc1ccc2ccc(=O)oc2c1` [Auraptene], the “% conversion” value under setting [3] is on record as 37.42%. As to `O=C(O)C1=CC(=C(c2ccc(O)c(C(=O)O)c2)c2ccc(O)c(C(=O)O)c2)C=CC1=O` [Aurintricarboxylic acid, reference compound], the inhibition at 20 µM (AspH activity, fixed compound concentration 20 μM, initial LOPAC screen, 0.5%v/v DMSO, read-out: Inhibition at 20 µM [%]) came to 104%. Further, the “Plate 1 (% inhibition)” value under setting [1] was 103.81%. Besides, under setting [2], the “Plate 1 (% conversion)” value worked out at 1.01%. Regarding `OC[C@H]1O[C@H]([S-])[C@H](O)[C@@H](O)[C@@H]1O.[Au+]` [Aurothioglucose], the “Plate 3 (% conversion)” value came out at 23.41%. `CC(C)c1cc(C(C)C)c(CC(=O)NS(=O)(=O)Oc2c(C(C)C)cccc2C(C)C)c(C(C)C)c1` [Avasimibe]: the “Plate 5 (% inhibition)” value came to 73.14% and the “Plate 5 (% conversion)” value was 11.42%. For the compound `CCCCCCCCCCCCCCCCCCN(CCCCCCCCCCCCCCCCCC)CCCN(CCO)CCO` [Avridine], the “Plate 5 (% inhibition)” value is listed as 10.21% and the “Plate 5 (% conversion)” value was found to be 32.84%. The “% conversion” value under setting [3] worked out at 28.90%. In the case of `CNC(=O)c1ccccc1Sc1ccc2c(/C=C/c3ccccn3)n[nH]c2c1` [Axitinib], the “Plate 5 (% inhibition)” value is -7.77% and the “Plate 5 (% conversion)” value is listed as 38.96%. As to `Cn1cnc([N+](=O)[O-])c1Sc1ncnc2nc[nH]c12` [Azathioprine], the “Plate 1 (% inhibition)” value under setting [1] is -17.98%. Besides, under setting [2], the “Plate 1 (% conversion)” value is listed as 41.91%. On the same counts, the results for `O=C(O)CCCCCCCC(=O)O` [Azelaic acid] are 11.13% and 32.14%. On the same counts, the results for `CC[C@H]1OC(=O)[C@H](C)[C@@H](O[C@H]2C[C@@](C)(OC)[C@@H](O)[C@H](C)O2)[C@H](C)[C@@H](O[C@@H]2O[C@H](C)C[C@H](N(C)C)[C@H]2O)[C@](C)(O)C[C@@H](C)CN(C)[C@H](C)[C@@H](O)[C@]1(C)O` [Azithromycin dihydrate] are -13.45% and 40.39%. Take `CC[C@H]1OC(=O)[C@H](C)[C@@H](O[C@H]2C[C@@](C)(OC)[C@@H](O)[C@H](C)O2)[C@H](C)[C@@H](O[C@@H]2O[C@H](C)C[C@H](N(C)C)[C@H]2O)[C@](C)(O)C[C@@H](C)CN(C)[C@H](C)[C@@H](O)[C@]1(C)O` [Azithromycin]: the “Plate 5 (% inhibition)” value was -3.13% and the “Plate 5 (% conversion)” value was 37.38%. With `CCN1CCc2nc(N)oc2CC1.Cl.Cl` [B-HT 933 dihydrochloride], the “Plate 1 (% inhibition)” value under setting [1] is given as -9.80%. Besides, the “Plate 1 (% conversion)” value under setting [2] was determined as 39.16%.

As to `COc1ccc(-c2cc3nccn3c(Nc3ncccc3C(N)=O)n2)cc1OC.Cl.O` [BAY 61-3606 hydrochloride hydrate], the “% conversion” value under setting [3] was 33.04%.

Turning to `Nc1ccc(-c2ccc3ccccc3n2)cc1` [BF-170 hydrochloride], under setting [4], the “% inhibition” value was -2.46%. Besides, under setting [3], the “% conversion” value is reported as 37.31%. As for `CC(=O)O[C@H]1Cc2ccccc2N(C(N)=O)c2ccccc21` [BIA 2-093], under setting [3], the “% conversion” value is on record as 30.46%. For the compound `COc1cc2nc(N3CCCN(C)CC3)nc(NC3CCN(Cc4ccccc4)CC3)c2cc1OC` [BIX 01294 trihydrochloride hydrate], under setting [4], the “% inhibition” value was -9.31%. In addition, the “% conversion” value under setting [3] is reported as 39.65%. On the same counts, the results for `C[C@H](c1ccc(F)cc1CCCC(=O)O)N(c1cc(F)ccc1F)S(=O)(=O)c1ccc(Cl)cc1` [BMS-299897] are -0.66% and 36.70%.

Consider `COc1ccccc1N1CCN(CCN2C(=O)CC3(CCCC3)CC2=O)CC1.Cl.Cl` [BMY 7378 dihydrochloride], for which the “Plate 1 (% inhibition)” value under setting [1] was -11.73%. Moreover, the “Plate 1 (% conversion)” value under setting [2] amounted to 39.81%.

For the compound `COc1ccccc1N1CCN(CCCCNC(=O)c2ccc3ccccc3c2)CC1` [BP 897], the “Plate 1 (% inhibition)” value under setting [1] was -9.00%. The “Plate 1 (% conversion)” value under setting [2] amounted to 38.89%. Regarding `C[C@H](Cc1ccc(OCC(=O)[O-])cc1)NC[C@H](O)c1cccc(Cl)c1.[Na+]` [BRL 37344 sodium], under setting [1], the “Plate 1 (% inhibition)” value came out at 4.03%. Also, the “Plate 1 (% conversion)” value under setting [2] turned out to be 34.52%.

For `Cc1ccc([N+](=O)[O-])cc1S(=O)(=O)N(C)C` [BRL 50481], the “Plate 1 (% conversion)” value was 38.84% and the “Plate 1 (% inhibition)” value is listed as -8.84%. Taken in the same sequence, the figures for `CN1CCC(c2c[nH]c3ccc(O)cc23)CC1.O=C(O)/C=C\C(=O)O` [BRL 54443 maleate] were 33.54% and 6.94%. `Cl.c1ccc2sc(C3(N4CCCCC4)CCCCC3)cc2c1` [BTCP hydrochloride]: the “Plate 1 (% conversion)” value was found to be 41.13% and the “Plate 1 (% inhibition)” value is -15.64%. Take `N#Cc1cc([N+](=O)[O-])c2sc(C(N)=O)[n+]([O-])c2c1` [BTO-1]: the “Plate 1 (% inhibition)” value under setting [1] is given as -2.18%. Also, under setting [2], the “Plate 1 (% conversion)” value is on record as 36.60%. As for `Cl.c1ccc2nc(C3=NCCN3)ccc2c1` [BU224 hydrochloride], under setting [1], the “Plate 1 (% inhibition)” value is on record as -5.25%. Also, the “Plate 1 (% conversion)” value under setting [2] came out at 37.63%. As for `C=CC[N+](C)(C)c1ccc(CCC(=O)CCc2ccc([N+](C)(C)CC=C)cc2)cc1.[Br-].[Br-]` [BW 284c51], the “Plate 1 (% conversion)” value came out at 38.38% and the “Plate 1 (% inhibition)” value is -7.47%.

For `CC(N)Cc1c[nH]c2ccc(OCc3cccs3)cc12` (centres unmarked) [BW 723C86], the “Plate 3 (% conversion)” value amounted to 36.52%. Consider `CC(/C=C/c1cccc(Oc2ccc(F)cc2)c1)N(O)C(N)=O` (centres unmarked) [BWB70C], for which the “Plate 1 (% inhibition)” value under setting [1] was -3.19%. Besides, the “Plate 1 (% conversion)” value under setting [2] is recorded as 36.94%. On to `Cc1ccc(S(=O)(=O)/C=C/C#N)cc1` [Bay 11-7082], for which the “% conversion” value under setting [3] was found to be 24.61%.

Regarding `CC(C)(C)c1ccc(S(=O)(=O)/C=C/C#N)cc1` [Bay 11-7085], the “Plate 1 (% conversion)” value came to 32.72% and the “Plate 1 (% inhibition)” value worked out at 9.38%. On to `C[C@H]1C[C@H]2[C@@H]3CCC4=CC(=O)C=C[C@]4(C)[C@@]3(Cl)[C@@H](O)C[C@]2(C)[C@@]1(O)C(=O)CO` [Beclomethasone], for which the “Plate 1 (% inhibition)” value under setting [1] is listed as -10.42%. Moreover, the “Plate 1 (% conversion)” value under setting [2] was 39.37%. For `c1ccc2cc(-c3ncc[nH]3)ccc2c1` [Benazoline oxalate], under setting [1], the “Plate 1 (% inhibition)” value was 77.21%. The “Plate 1 (% conversion)” value under setting [2] was 9.94%. As to `Cl.Cn1c(CCCC(=O)O)nc2cc(N(CCCl)CCCl)ccc21` [Bendamustine hydrochloride], the “Plate 2 (% conversion)” value is 39.38%. Where the note is “20 µM”, the “Plate 2 (% inhibition)” value is on record as -10.22%. Take `COc1cccc(OC)c1OCCNCC1CSc2ccccc2O1` (centres unmarked) [Benoxathian hydrochloride]: the “Plate 1 (% inhibition)” value under setting [1] is recorded as -17.92%. Further, the “Plate 1 (% conversion)” value under setting [2] stood at 41.89%. Taken in the same sequence, the figures for `NC(=O)c1ccccc1` [Benzamide] were -4.66% and 37.44%.

Consider `N=C(N)c1ccccc1` [Benzamidine hydrochloride], for which the “Plate 1 (% inhibition)” value under setting [1] is listed as -1.42%. Also, under setting [2], the “Plate 1 (% conversion)” value turned out to be 36.35%. On the same counts, the results for `NC(=NCc1ccccc1)NC(=O)c1nc(Cl)c(N)nc1N` [Benzamil hydrochloride] are 8.35% and 33.07%. On the same counts, the results for `CN1[C@@H]2CC[C@H]1C[C@@H](OC(c1ccccc1)c1ccccc1)C2` [Benztropine mesylate] are -9.74% and 39.14%.
